Data published in patent US12612420B2, “Arginase inhibitors and methods of use thereof” (Molecure S.A., priority 2020, dated 2026).
pIC50: −log10 of the molar value. Counter-ions that a name gives are not always drawn.

How the values were obtained:
[1] = biological target: T1, recombinant human arginase 1 (hARG1) (Homo sapiens, UniProt P05089); experiment: Human arginase inhibition assay (colorimetric urea detection), arginase 1; format: biochemical; details: IC50 class; hydrochloride salts; 1 h at 37° C., pH 7.4, 10 mM L-arginine, 200 μM MnCl2; read-out: Activity Class (ARG I)
T1 construct: made in house; host or cells: E. coli
T1 sequence (P05089 1-322): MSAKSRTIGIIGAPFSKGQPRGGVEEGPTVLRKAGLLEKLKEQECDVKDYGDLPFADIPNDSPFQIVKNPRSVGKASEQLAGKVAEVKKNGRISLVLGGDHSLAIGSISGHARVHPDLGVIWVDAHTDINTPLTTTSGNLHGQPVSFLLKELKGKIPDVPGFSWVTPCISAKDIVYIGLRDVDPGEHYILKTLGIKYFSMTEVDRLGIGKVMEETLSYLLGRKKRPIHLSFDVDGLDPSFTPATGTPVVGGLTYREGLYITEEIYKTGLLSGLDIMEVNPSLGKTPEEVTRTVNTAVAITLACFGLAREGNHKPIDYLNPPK
Procedure: (§1) Human Arginase Inhibition Assay
(§2) The inhibitory activities of the compounds of the invention were assessed using recombinant human arginases 1 and 2. Both enzymes were biosynthesized using a prokaryotic expression system (E. coli) and purified by fast protein liquid chromatography (FPLC). The compounds were screened in 96-well plates at the total reaction volume of 100 μL. Briefly, recombinant enzymes were incubated with the tested compounds for 1 h at 37° C. in the reaction buffer (100 mM sodium phosphate buffer, 130 mM NaCl, 1 mg/mL BSA, pH 7.4) containing substrate (L-arginine hydrochloride, 10 mM for hARG1 and 20 mM for hARG2) and cofactor (200 μM MnCl2). The assay is based on the detection of urea, which is generated during the conversion of L-arginine into L-omithine catalyzed by ARG1 or ARG2 (Baggio et al. J Pharmacol. Exp. Ther. 1999, 290, 1409-1416). The colorimetrically detectable product was developed by adding a mixture of reagent A (4 mM oPA, 50 mM boric acid, 1 M sulfuric acid, 0.03% Brij-35) and reagent B (4 mM NED, 50 mM boric acid, 1 M sulfuric acid, 0.03% Brij-35) in equal proportions. The absorbance for each well was measured at 515 nm and the enzyme inhibition was calculated. The urea production in the absence of any tested compound was considered as maximal enzyme activity. The absorbance at the absence of arginase (background) was subtracted from all the values. The normalized values were analyzed using GraphPad Prism 7.0 software by plotting inhibition curves and determining the IC50 values.
(§3) The inhibitory activity classes of the hydrochloride salts of the exemplary compounds according to the invention are presented in Table 1

[2] = biological target: T2, recombinant human arginase 2 (hARG2) (Homo sapiens, UniProt P78540); experiment: Human arginase inhibition assay (colorimetric urea detection), arginase 2; format: biochemical; details: IC50 class; hydrochloride salts; 1 h at 37° C., pH 7.4, 20 mM L-arginine, 200 μM MnCl2; read-out: Activity Class (ARG II)
T2 construct: made in house; host or cells: E. coli
T2 sequence (P78540 23-354): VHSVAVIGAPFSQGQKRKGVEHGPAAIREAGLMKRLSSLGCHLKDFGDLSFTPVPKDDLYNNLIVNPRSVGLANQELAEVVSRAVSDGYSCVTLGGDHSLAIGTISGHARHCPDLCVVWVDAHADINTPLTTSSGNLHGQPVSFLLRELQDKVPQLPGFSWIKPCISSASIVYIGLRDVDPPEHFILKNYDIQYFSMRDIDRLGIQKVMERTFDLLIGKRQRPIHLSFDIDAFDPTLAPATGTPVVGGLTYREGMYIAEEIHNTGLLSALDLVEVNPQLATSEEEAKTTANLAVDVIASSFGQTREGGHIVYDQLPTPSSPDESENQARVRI
Procedure: as §1, §2, §3

[3] = biological target: T3, intracellular arginase in macrophages isolated from murine bone marrow (BMDM) (Mus musculus, UniProt Q61176); experiment: Cell-based assay: intracellular arginase in bone marrow derived macrophages (BMDM), urea in culture medium; design: species or system murine (C57BL/6 mice); details: IC50 class; M2-polarised murine BMDM (M-CSF, TGF-β, IL-4), urea in medium after 24 hours
T3 construct: endogenous in cells; host or cells: primary bone-marrow-derived macrophages from C57BL/6 mice, cultured with M-CSF, TGF-β and IL-4
T3 sequence (Q61176 1-323): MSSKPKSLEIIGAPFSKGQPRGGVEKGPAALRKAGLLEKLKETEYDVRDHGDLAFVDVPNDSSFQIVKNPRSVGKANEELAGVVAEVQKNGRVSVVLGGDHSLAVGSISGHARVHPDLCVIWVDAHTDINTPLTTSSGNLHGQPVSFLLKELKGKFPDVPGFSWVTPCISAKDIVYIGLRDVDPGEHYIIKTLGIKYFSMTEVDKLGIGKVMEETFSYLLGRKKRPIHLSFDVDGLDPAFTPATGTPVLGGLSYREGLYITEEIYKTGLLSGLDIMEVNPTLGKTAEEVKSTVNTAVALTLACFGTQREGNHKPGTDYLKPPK
Procedure: To illustrate the lower cellular activity of the compounds according to the invention versus arginase inhibitors disclosed in U.S. Ser. No. 10/391,077 B2, the selected examples were tested in cell-based assay using murine primary macrophages. Lower intracellular activity observed for the compounds according to the invention may potentially result in lower hepatotoxicity compared to the arginase inhibitors disclosed in U.S. Ser. No. 10/391,077 B2.
Efficacy of Selected Examples Towards Intracellular Arginase in Macrophages Isolated from Murine Bone Marrow—Bone Marrow Derived Macrophages (BMDM)
Murine bone marrow-derived or peritoneal macrophages comprise a convenient in vitro model that enables differentiation of these cells towards M1 or M2 macrophages and further use for the study.
Materials & Methods: The assay was performed according to modified literature protocol (Pineda-Torra I et al., Methods Mol Biol. 2015; 1339:101-9. Mia S et al., Scand J Immunol. 2014 May; 79(5):305-14). The femurs and tibias were isolated from C57BL/6 mice. Bones were cleaned from all attached tissues by using a sterile swab without affecting the bone structure. The sides of the bones were cut off and flush with cold sterile PBS by using 26-G needle S into a 50 mL sterile tube with a cell strainer (Falcon™, Cat. No. U00149), until the bone cavity appeared white. Then, the cells were centrifuged (5 min at 500×G, 4° C.), washed twice with PBS and counted. Cells were plated in Petri dish in density of 1×10^6/mL and cultured in DMEM (Gibco, Cat. No. 31331-029) with 10% FBS, 1% pen-strep and 50 ng/mL M-CSF (PeproTech, Cat. No. 315-02), (37° C., 5% CO2). After five days cells were subcultured into P96 plate (BD, Cat. No. 353072) at the density of 64,000 cells/well in medium supplemented with 50 ng/mL M-CSF, 20 ng/mL TGF-β and 30 ng/mL IL-4 (Biomibo Cat. No. 214-1). One day later exemplary compounds (dissolved in PBS) were added in several different concentrations and 24 hours later the level of urea was measured in the culture medium in each well (Jung D et al., Clin Chem. 1975, 21(8):1136-40). The concentration of urea in the absence of any compound was considered as the maximum enzyme activity. The absorbance of cell culture media (background) was subtracted from all the values.
The IC50 values were calculated using GraphPad Prism 7.0. and assigned into the following classes: A=10-100 μM; and B>100 μM.

- pIC50 [1]: 7.00 to 9.00
- pIC50 [2]: < 6.52
- pIC50 [3]: < 4.00
Structure (SMILES): N[C@]1(C(=O)O)C[C@H](CCB(O)O)CC[C@H]1CNC(=O)[C@@H]1CCCN1 [Example 5, (1R,2S,5R)-1-Amino-5-(2-boronoethyl)-2-(((S)-pyrrolidine-2-carboxamido)methyl)cyclohexane-1-carboxylic acid dihydrochloride]
